# According to publication PMC11741006, “Raman active diyne-girder conformationally constrained p53 stapled peptides bind to MDM2 for visualisation without fluorophores” (RSC Chemical Biology, 2025):
# Residues, ends and D or L forms follow the SMILES beside them. *: point of attachment. FITC = O=C1OC2(c3ccc(O)cc3Oc3cc(O)ccc32)c2ccc(NC(=S)*)cc21; Ahx = NCCCCCC(=O)O
# What was measured:
# [1] = Circular dichroism spectroscopy, percentage helicity; format: physicochemical; details: CD in PBS pH 7.4, room temperature; from MRE at 222 nm, equations of Luo and Baldwin; peptides analysed at 25 μM and 50 μM
# Experimental: Following the successful synthesis of the diyne peptide 4, it was important to identify the effect of the modified staple on the α-helical nature of the peptide. The effectiveness of the diyne staple as an α-helical constraint was assessed by CD. Experiments were set out to directly compare the diyne stapled peptide 4 to the alkene stapled peptides (cis-2 and trans-3), with the linear peptide 1 employed as a control. CD was performed at two concentrations to investigate whether peptide concentration influenced helicity, as coiled-coil structures are known to increase helicity.[25] Peptide concentrations were quantified using a NanoDrop™ One Microvolume UV-Vis spectrophotometer using the UV absorption of the peptides at 280 nm.[26] Extinction coefficients of the peptides were calculated from Trp and Tyr residues and the Beer–Lambert law employed to calculate the concentrations.
# Each of the peptides (1–4) were analysed at 25 μM and 50 μM in phosphate buffered saline (PBS, pH 7.4) (Fig. 3). CD spectra were measured from 190–260 nm and the characteristic α-helical negative maxima examined for their intensity at 208 nm and 222 nm.[27] […] This is to be expected due to the random coil nature of 1. […] Helicity calculations were performed following conversion of the measured degrees of ellipticity (θ) data to mean residue ellipticity (MRE) (eqn (S1), ESI ^†). […]
# Cell Permeability Fluorescence Assay […]
# [2] = molecular target: T1, MDM2 (1–138) (Homo sapiens, UniProt Q00987); assay: Fluorescence polarisation direct binding assay, MDM2; details: direct FP binding; 10 nM FITC peptide in Tris buffer pH 7.6; protein serially diluted 10 μM to 9 pM; 3 h, room temperature; quadratic ligand depletion fit; n = 3
# T1 construct: His6-GST (TEV-cleavable) (N, cleaved yes); made in house; host or cells: E. coli Rosetta 2(DE3)pLacI
# T1 sequence (Q00987 1-138): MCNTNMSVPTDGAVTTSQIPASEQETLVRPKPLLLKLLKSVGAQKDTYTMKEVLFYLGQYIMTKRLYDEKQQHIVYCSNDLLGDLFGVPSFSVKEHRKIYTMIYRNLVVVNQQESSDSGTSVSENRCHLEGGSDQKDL
# Experimental: The binding properties of the peptides were assessed using a biophysical FP assay. Specifically, a direct binding assay was conducted to calculate the Kd values of the fluorescent peptide ligands binding to the target proteins. Fluorescently labelled peptides were tested for binding to MDM2 (1-138) and MDMX (1-134). […] All FP measurements were performed on a microplate reader (CLARIOstar) in black 384-well microplates with 20 μL of sample solution per well.
# was added and serially diluted from 10 μM to 9 pM. Peptide (10 nM in Tris buffer pH 7.6) was then added to all wells and mixed. The sample were left to incubate at room temperature for 3 hours. Plates were placed in a PerkinElmer Victor X5 plate reader with excitation measured at 531 nm and emission measured at 595 nm. The raw data was normalized using baseline correction, where the baseline was defined as the fluorescence polarisation measured in the absence of peptide. Normalised data were then plotted in Prism 7.0 and fitted by using the quadratic ligand depletion model (Equation S3).
# Y is the fluorescent polarisation signal measured at each datapoint. […]
# [3] = molecular target: T2, MDMX (1–134) (Homo sapiens, UniProt O15151); assay: Fluorescence polarisation direct binding assay, MDMX; details: direct FP binding; 10 nM FITC peptide in Tris buffer pH 7.6; protein serially diluted 10 μM to 9 pM; 3 h, room temperature; quadratic ligand depletion fit; n = 3
# T2 construct: tested against MDMX (1–134); His6-GST (TEV-cleavable) (N, cleaved yes); made in house; host or cells: E. coli Rosetta 2(DE3)pLysS
# T2 sequence (O15151 1-134): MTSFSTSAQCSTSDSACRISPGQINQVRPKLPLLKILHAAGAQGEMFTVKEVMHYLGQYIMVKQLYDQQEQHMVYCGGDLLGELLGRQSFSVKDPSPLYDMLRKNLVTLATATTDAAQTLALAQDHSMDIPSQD
# Experimental: The binding properties of the peptide were assessed using a biophysical FP assay. Specifically, a direct binding assay was conducted to calculate the Kd values of the fluorescent peptide ligands binding to the target proteins (eqn (S3), ESI ^†).[29] […] The peptides were first tested for binding with MDM2 (1–138). […] Peptide solutions were made up to a concentration of 10 nM and varying concentrations of protein (10 μM to 9 pM) were incubated with the peptide with FP measurements taken after 3 h (Fig. 4). […] The final analogue examined for its binding of MDM2 was 5FITC, the diyne negative control. […]
# resuspension buffer. […]
# The His6-GST -tagged proteins were then cleaved with TEV while dialyzing into 330 mM NaCl, PBS, 5 mM BME for 20 hours at 4 °C. […] Protein concentration was measured at an absorbance of 595 nm with the Bio-rad Protein Assay Kit II using bovine serum albumin as a standard. […]
# Fluorescence Polarisation Binding Assay
# The binding properties of the peptides were assessed using a biophysical FP assay. […] All FP measurements were performed on a microplate reader (CLARIOstar) in black 384-well microplates with 20 μL of sample solution per well. […]
# was added and serially diluted from 10 μM to 9 pM. […] Plates were placed in a PerkinElmer Victor X5 plate reader with excitation measured at 531 nm and emission measured at 595 nm. […]
percentage helicity [1],Compound,also measured
48%,"Ac-LTFR8EYWAQ(Cba)S5SAA-NH2 (sidechain bridge or staple) [compound 2, i, i + 7 alkene stapled peptide ATSP-7041 (2/3), cis-isomer, acetylated]",
59%,"Ac-LTFS7EYWAQ(Cba)S7SAA-NH2 (sidechain bridge or staple) [compound 4, i, i + 7 diyne-girder stapled peptide analogue of ATSP-7041, acetylated]",
,CC(C)C[C@H](NC(=O)CCCCCNC(=S)Nc1ccc2c(c1)C(=O)OC21c2ccc(O)cc2Oc2cc(O)ccc21)C(=O)N[C@H](C(=O)N[C@@H](Cc1ccccc1)C(=O)N[C@@]1(C)CCCCCC#CC#CCCCCC[C@@](C)(C(=O)N[C@@H](CO)C(=O)N[C@@H](C)C(=O)N[C@@H](C)C(N)=O)NC(=O)[C@H](CC2CCC2)NC(=O)[C@H](CCC(N)=O)NC(=O)[C@H](C)NC(=O)[C@H](Cc2c[nH]c3ccccc23)NC(=O)[C@H](Cc2ccc(O)cc2)NC(=O)[C@H](CCC(=O)O)NC1=O)[C@@H](C)O [4FITC],Kd [2]: 1.39 ± 0.08 nM
,CC(C)C[C@H](NC(=O)CCCCCNC(=S)Nc1ccc2c(c1)C(=O)OC21c2ccc(O)cc2Oc2cc(O)ccc21)C(=O)N[C@H](C(=O)N[C@@H](Cc1ccccc1)C(=O)N[C@@H](CCC(=O)O)C(=O)N[C@@H](Cc1c[nH]cn1)C(=O)N[C@@H](Cc1ccc(O)cc1)C(=O)N[C@@H](Cc1c[nH]c2ccccc12)C(=O)N[C@@H](C)C(=O)N[C@@H](CCC(N)=O)C(=O)N[C@@H](CC(C)C)C(=O)N[C@H](C(=O)N[C@@H](CO)C(N)=O)[C@@H](C)O)[C@@H](C)O [1FITC] ({FITC-Ahx}-LTFEHYWAQLTS-NH2),Kd [3]: 20.1 ± 0.23 nM
